Experimental data: article PMC3895568, “Isolation and characterization of Leucine dehydrogenase from a thermophilic Citrobacter freundii JK-91strain Isolated from Jask Port” (Iranian Journal of Microbiology, 2013)

Tested on: T1, LeuDH (Leucine dehydrogenase, EC 1.4.1.9)
T1 construct: native enzyme purified from isolate JK-91 (ammonium sulfate, DEAE-Toyopearl, TSK gel G3000SW); subunit 40 kDa, about 320 kDa, octamer
Experiment: NADH formation at […] nm, oxidative deamination
Format: biochemical, Citrobacter freundii
Conditions: co-substrate NAD+; standard assay 50 mM glycine-NaOH pH 10.4, 100 mM NaCl, 2.5 mM NAD+; exact conditions and temperature of the kinetics not stated

**Q.** `CC(C)C[C@H](N)C(=O)O` [L-leucine] was tested. Which Km did it give?
**A.** Its Km is 1200 µM.
